From US10618903B2, “Heteroaryl substituted aminopyridine compounds” (BRISTOL-MYERS SQUIBB COMPANY, priority 2015, dated 2020) come the findings set out here.

The target in one data set is IRAK4 (Homo sapiens (Human), UniProt Q9NWZ3). In words: IRAK4 Inhibition Assay. It counts as biochemical. To be noted: ATP 500 μM; IRAK4 0.6 nM. The method in brief:
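Mobility-shift readout: phosphorylated and unphosphorylated fluorescent peptide (1.5 μM) resolved by electrophoresis after a 60 min room-temperature reaction stopped with EDTA. Reaction holds 0.6 nM IRAK4, 500 μM ATP and 1.6% DMSO in HEPES pH 7.2/MgCl2/Brij 35/DTT buffer; percent inhibition set against vehicle and no-enzyme controls.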

Another data set concerns Caco-2 cells. In words: Caco Permeability Assay. To be noted: Caco-2 cells, 3 μM compound. Format: in vitro ADME. (In general: Passage across Caco-2 layers is used to estimate intestinal permeability.)
Data set [1] concerns IL-6 levels in human whole blood stimulated with a TLR2 agonist. The data set is described as follows: IRAK4 Whole Blood Assay (lipoteichoic acid/TLR2-stimulated IL-6). The note with it: lipoteichoic acid 10 μg/mL, IL-6 readout. Format: cell-based. The method in brief: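 ACD-A-anticoagulated human whole blood was preincubated with compounds for 60 min at 37 °C under 5% CO2. It was then stimulated with 10 μg/mL lipoteichoic acid (final) in RPMI for 5 h. IL-6 in plasma supernatants was measured by flow cytometry bead assay.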

A short description of the next data set: Caco Permeability Assay. To be noted: human, Caco-2, Caco-2 cells, 3 μM compound. Format: in vitro ADME.

Sequence of IRAK4 (Q9NWZ3 whole entry): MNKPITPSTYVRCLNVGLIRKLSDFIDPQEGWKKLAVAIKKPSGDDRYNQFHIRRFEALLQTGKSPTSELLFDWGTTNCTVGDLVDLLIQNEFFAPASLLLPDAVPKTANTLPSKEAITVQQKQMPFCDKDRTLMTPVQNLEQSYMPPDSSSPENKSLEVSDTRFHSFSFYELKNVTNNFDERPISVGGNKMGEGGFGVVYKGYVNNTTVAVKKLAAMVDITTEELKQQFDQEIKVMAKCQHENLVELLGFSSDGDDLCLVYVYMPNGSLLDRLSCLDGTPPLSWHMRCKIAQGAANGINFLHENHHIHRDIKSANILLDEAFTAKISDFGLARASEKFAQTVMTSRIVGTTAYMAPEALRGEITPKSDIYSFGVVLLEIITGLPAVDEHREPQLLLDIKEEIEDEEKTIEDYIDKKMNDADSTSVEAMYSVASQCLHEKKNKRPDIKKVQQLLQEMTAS

Usually IC50 stands for the concentration needed to halve the response being measured. In general, EC50 refers to the midpoint of the concentration-response curve. For `CC(C)(O)[C@H](F)CNC(=O)c1cnc(-c2cnn3cc(C#N)cnc23)cc1Nc1cnn(CC(F)(F)F)c1` [Example 241, (R)-6-(6-cyanopyrazolo[1,5-a]pyrimidin-3-yl)-N-(2-fluoro-3-hydroxy-3-methylbutyl)-4-((1-(2,2,2-trifluoroethyl)-1H-pyrazol-4-yl)amino)nicotinamide], the IC50 on IRAK4 came to 2 nM. Further, in the data set with Caco-2 cells, the “Caco-2 Permeability” value was under 1.5 ×10⁻⁶ cm/s. In addition, in data set [1], the EC50 stood at 130 nM.

As to `CC(C)(O)[C@H](F)CNC(=O)c1cnc(-c2cnn3cc(Cl)cnc23)cc1NC1CCC(F)C1` (stereo partly drawn) [Example 84, 6-(6-chloropyrazolo[1,5-a]pyrimidin-3-yl)-N—((R)-2-fluoro-3-hydroxy-3-methylbutyl)-4-((3-fluorocyclopentyl)amino)nicotinamide], the IC50 on IRAK4 turned out to be 2 nM. For the same compound, in the data set on Caco-2 cells, the “Caco-2 Permeability” value was found to be 12 ×10⁻⁶ cm/s. The compound further returned an EC50 in data set [1] of 320 nM.

Turning to `CC(C)(O)[C@H](F)CNC(=O)c1cnc(-c2cnn3cc(Cl)cnc23)cc1NCCC(F)(F)F` [Example 46, (R)-6-(6-chloropyrazolo[1,5-a]pyrimidin-3-yl)-N-(2-fluoro-3-hydroxy-3-methylbutyl)-4-((3,3,3-trifluoropropyl)amino) nicotinamide], the IC50 at IRAK4 came out at 5 nM. Also, in the data set on Caco-2 cells, the “Caco-2 Permeability” value is 24.1 ×10⁻⁶ cm/s. This compound also returned an EC50 in data set [1] of 1970 nM.

`CCCNc1cc(-c2cnn3cc(Cl)cnc23)ncc1C(=O)NC[C@@H](F)C(C)(C)O` [Example 159, (R)-6-(6-chloropyrazolo[1,5-a]pyrimidin-3-yl)-N-(2-fluoro-3-hydroxy-3-methylbutyl)-4-(propylamino)nicotinamide]: the “Caco-2 Permeability” value with Caco-2 cells turned out to be 9.5 ×10⁻⁶ cm/s. This compound showed an EC50 in data set [1] (Homo sapiens) of 1000 nM.

Take `CC1(Nc2cc(-c3cnc4cc(Cl)cnn34)ncc2C(=O)NC[C@H](F)C(C)(C)O)CC1` [Example 207, (S)-6-(7-chloroimidazo[1,2-b]pyridazin-3-yl)-N-(2-fluoro-3-hydroxy-3-methylbutyl)-4-((1-methylcyclopropyl)amino)nicotinamide]: in the data set on Caco-2 cells, the “Caco-2 Permeability” value was determined as 9.7 ×10⁻⁶ cm/s. For the same compound, the EC50 in data set [1] came to 260 nM.

As to `CCCNc1cc(-c2cnn3cc(Cl)cnc23)ncc1C(=O)NC[C@@H](F)C(C)(C)O` [Example 66, (R)-6-(6-chloropyrazolo[1,5-a]pyrimidin-3-yl)-N-(2-fluoro-3-hydroxy-3-methylbutyl)-4-(propylamino)nicotinamide], the IC50 on IRAK4 stood at 3 nM. Further, the “Caco-2 Permeability” value in the data set on Caco-2 cells worked out at 21.2 ×10⁻⁶ cm/s.

Broadly, the Papp is the rate of passage across a membrane or cell layer, normalised by area and donor concentration. Read a low Papp as slow passage. Turning to `CC(C)(O)[C@H](F)CNC(=O)c1cnc(-c2cnn3cc(C#N)cnc23)cc1Nc1cnn(C2CC2)c1` [Example 248, (R)-6-(6-cyanopyrazolo[1,5-a]pyrimidin-3-yl)-4-((1-cyclopropyl-1H-pyrazol-4-yl)amino)-N-(2-fluoro-3-hydroxy-3-methylbutyl)nicotinamide], the IC50 on IRAK4 came out at 2 nM. Besides, the Papp at 2 h, 3 µM in the data set “Caco Permeability Assay” was under 1.5 ×10⁻⁶ cm/s. This compound also returned an EC50 in data set [1] (Homo sapiens) of 370 nM.

Regarding `CC(C)(O)[C@H](F)CNC(=O)c1cnc(-c2cnc3cc(Cl)cnn23)cc1Nc1cnn(CC(F)F)c1` [Example 262, (R)-6-(7-chloroimidazo[1,2-b]pyridazin-3-yl)-4-((1-(2,2-difluoroethyl)-1H-pyrazol-4-yl)amino)-N-(2-fluoro-3-hydroxy-3-methylbutyl)nicotinamide], at IRAK4, the IC50 is 1 nM. The Papp at 2 h, 3 µM in the data set “Caco Permeability Assay” was found to be 2.6 ×10⁻⁶ cm/s. The EC50 in data set [1] (Homo sapiens) is 520 nM.

Consider `CC(C)(O)[C@H](F)CNC(=O)c1cnc(-c2cnn3cc(Cl)cnc23)cc1NC12CCC(O)(CC1)C2` [Example 73, (R)-6-(6-chloropyrazolo[1,5-a]pyrimidin-3-yl)-N-(2-fluoro-3-hydroxy-3-methylbutyl)-4-((4-hydroxybicyclo[2.2.1]heptan-1-yl)amino)nicotinamide], for which the IC50 on IRAK4 came to 2 nM. Besides, the Papp at 2 h, 3 µM in the data set “Caco Permeability Assay” was under 1.5 ×10⁻⁶ cm/s. Also, in data set [1] (Homo sapiens), the EC50 was 710 nM.

As to `COCCn1cc(Nc2cc(-c3cnn4cc(Cl)cnc34)ncc2C(=O)NC[C@@H](F)C(C)(C)O)cn1` [Example 242, (R)-6-(6-chloropyrazolo[1,5-a]pyrimidin-3-yl)-N-(2-fluoro-3-hydroxy-3-methylbutyl)-4-((1-(2-methoxyethyl)-1H-pyrazol-4-yl)amino) nicotinamide], at IRAK4, the half-maximal inhibitory concentration (IC50) worked out at 2 nM. For the same compound, the Papp at 2 h, 3 µM in the data set “Caco Permeability Assay” was 2.1 ×10⁻⁶ cm/s. Besides, the EC50 in data set [1] (Homo sapiens) was found to be 60 nM.

Regarding `CC(C)(O)[C@H](F)CNC(=O)c1cnc(-c2cnc3cc(C#N)cnn23)cc1NC1CCOCC1` [Example 146, (R)-6-(7-cyanoimidazo[1,2-b]pyridazin-3-yl)-N-(2-fluoro-3-hydroxy-3-methylbutyl)-4-((tetrahydro-2H-pyran-4-yl)amino)nicotinamide], on IRAK4, the IC50 was found to be 2 nM. This compound showed a Papp at 2 h, 3 µM in the data set “Caco Permeability Assay” of under 1.5 ×10⁻⁶ cm/s. In data set [1] (Homo sapiens), this compound gave an EC50 of 150 nM.

Turning to `CC(C)(O)CCNC(=O)c1cnc(-c2cnc3cc(Cl)cnn23)cc1NC1COC1` [Example 218, 6-(7-chloroimidazo[1,2-b]pyridazin-3-yl)-N-(3-hydroxy-3-methylbutyl)-4-(oxetan-3-ylamino)nicotinamide], the IC50 on IRAK4 stood at 5 nM. In the data set “Caco Permeability Assay”, the Papp at 2 h, 3 µM was found to be 2.1 ×10⁻⁶ cm/s. Further, the EC50 in data set [1] (Homo sapiens) came to 220 nM.

For the compound `CC(C)Nc1cc(-c2cnn3cc(C#N)cnc23)ncc1C(=O)NC[C@@H](F)C(C)(C)O` [Example 87, (R)-6-(6-cyanopyrazolo[1,5-a]pyrimidin-3-yl)-N-(2-fluoro-3-hydroxy-3-methylbutyl)-4-(isopropylamino)nicotinamide], the IC50 on IRAK4 worked out at 2 nM. The compound further had an apparent permeability coefficient (Papp) at 2 h, 3 µM in the data set “Caco Permeability Assay” of 5.6 ×10⁻⁶ cm/s. In data set [1] (Homo sapiens), this compound registered an EC50 of 250 nM.

As for `CCn1cc(Nc2cc(-c3cnc4cc(Cl)cnn34)ncc2C(=O)NC[C@@H](F)C(C)(C)O)cn1` [Example 266, (R)-6-(7-chloroimidazo[1,2-b]pyridazin-3-yl)-4-((1-ethyl-1H-pyrazol-4-yl)amino)-N-(2-fluoro-3-hydroxy-3-methylbutyl) nicotinamide], the IC50 on IRAK4 was 3 nM. In addition, the Papp at 2 h, 3 µM in “Caco Permeability Assay” turned out to be 2.9 ×10⁻⁶ cm/s. A half-maximal effect in data set [1] (Homo sapiens) (EC50) was put at 570 nM.

As to `COc1cnc(N2CC[C@@H](Nc3cc(-c4cnn5cc(C#N)cnc45)ncc3C(=O)NC[C@@H](F)C(C)(C)O)C2)nc1` [Example 115, 6-(6-cyanopyrazolo[1,5-a]pyrimidin-3-yl)-N—((R)-2-fluoro-3-hydroxy-3-methylbutyl)-4-(((R)-1-(5-methoxypyrimidin-2-yl)pyrrolidin-3-yl)amino)nicotinamide], the IC50 at IRAK4 came out at 6 nM. The compound also displayed a Papp at 2 h, 3 µM in the data set “Caco Permeability Assay” of under 1.5 ×10⁻⁶ cm/s. In data set [1] (Homo sapiens), this compound gave an EC50 of 2030 nM.

For `CC(C)(O)CCNC(=O)c1cnc(-c2cnn3cc(Cl)cnc23)cc1NC1COC1` [Example 47, 6-(6-chloropyrazolo[1,5-a]pyrimidin-3-yl)-N-(3-hydroxy-3-methylbutyl)-4-(oxetan-3-ylamino)nicotinamide], the IC50 on IRAK4 is 8 nM. This compound had an apparent permeability coefficient (Papp) at 2 h, 3 µM in the data set “Caco Permeability Assay” of 17.3 ×10⁻⁶ cm/s. In data set [1] (Homo sapiens), this compound registered an EC50 of 350 nM.

Consider `CC(C)OC1CC(Nc2cc(-c3cnn4cc(Cl)cnc34)ncc2C(=O)NC[C@@H](F)C(C)(C)O)CC1(F)F` (single isomer, unassigned) [Example 15], for which the IC50 on IRAK4 is 4 nM. For the same compound, in “Caco Permeability Assay”, the Papp at 2 h, 3 µM was 6.5 ×10⁻⁶ cm/s. The compound further yielded an EC50 in data set [1] (Homo sapiens) of 660 nM.

With `CCCn1cc(Nc2cc(-c3cnc4cc(C#N)cnn34)ncc2C(=O)NC[C@@H](F)C(C)(C)O)cn1` [Example 278, (R)-6-(7-cyanoimidazo[1,2-b]pyridazin-3-yl)-N-(2-fluoro-3-hydroxy-3-methylbutyl)-4-((1-propyl-1H-pyrazol-4-yl)amino)nicotinamide], on IRAK4, the IC50 turned out to be 1 nM. Besides, the Papp at 2 h, 3 µM in “Caco Permeability Assay” was under 1.5 ×10⁻⁶ cm/s. The concentration giving a half-maximal response (EC50) in data set [1] (Homo sapiens) turned out to be 360 nM.
